Patent US20090069740A1, “PROTECTED DONOR ELECTRODES FOR ELECTRO-TRANSPORT DRUG DELIVERY” (POLYPLUS BATTERY COMPANY, priority 2007, published 2009)

Experiment: In vitro Li delivery through pig skin in a flow-through Li-AgCl cell (protected Li metal foil donor electrode)
Format: in vitro ADME
Conditions: ICP-MS
Procedure: The glass receptor compartment was similar to one described by Phipps et al. (1988) Solid-state Ionics 28-30: 1778-1783, for ionophoretic drug delivery experiments. The receptor compartment was filled with RPMI-1640 Medium (Sigma Aldrich). The antibiotic gentamicin sulphate was added to the receptor compartment fluid to inhibit bacterial growth.
The prepared skin was stored in RPMI-1640 medium overnight before the start of the experiment. The skin was placed on the receptor chamber and kept in place and stretched out with an O-ring around the neck of the chamber. The visceral surface of the skin was in contact with the receptor fluid.
A square 1 cm×1 cm silver chloride cathode with a capacity of approximately 40 mAh was introduced into the receptor chamber through a port. A multi-channel peristaltic pump was used to create a flow of the RPMI-1640 medium through receptor compartments of several cells. […]
The donor-acceptor chamber assembly was kept in place using a clamp. […] Li content in the fluid samples taken from receptor compartment was analyzed by ICP-MS.
Over the duration of the experiment (27 hrs at a current density of 0.1 mA/cm^2 and 24 hrs at a current density of 0.2 mA/cm^2), receptor fluid samples were taken and analyzed.
The rate of Li delivery into the receptor compartment was calculated as a product of Li concentration and the flow rate of the receptor fluid.

initial Li content of receptor solution (before current passing): ≤ 6 µg/L
SMILES: [Li+] [Li, lithium]
Li content in receptor fluid samples (constant current 0.1 mA/cm^2 (27 hrs) and 0.2 mA/cm^2 (24 hrs), 37° C, RPMI-1640 receptor fluid, flow rate 2.1 mL/hr, FIG. 9): gradually increased over time and was significantly larger for the rate of 0.2 mA/cm^2 than for 0.1 mA/cm^2
